pIC50: −log10 of the molar value. Where two headings read alike, the source gives them in different places.
What was measured:
[1] = system: P. falciparum male gametocytes; test: P. falciparum Dual Gamete Formation Assay (PfDGFA), male readout (exflagellation); format: cell-based, Plasmodium falciparum NF54; settings: for Selectivity Ratio M: HepG2 Tox50 versus male IC50
How it was run: (§1)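 NF54 mature gametocytes (d14), cpd 24 h 37°C hypoxic gas; trigger: xanthurenic acid ookinete medium + Cy3 anti-Pfs25, 4°C 4 min → 28°C 4 min. Male: exflagellation centres, brightfield x6. Female: Pfs25+ gametes, fluorescence, +24 h 28°C dark.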

[2] = system: P. falciparum female gametocytes; design: method as in Miguel-Blanco et al 2017; settings: ref Miguel-Blanco et al 2017; read-out: Pf female gametogenesis FGAA IC50; cited from earlier work
[3] = system: P. falciparum female gametocytes; test: P. falciparum Dual Gamete Formation Assay (PfDGFA), female readout (Pfs25-positive female gametes); format: cell-based, Plasmodium falciparum NF54; settings: for Selectivity ratio F: HepG2 Tox50 versus female IC50
How it was run: as §1

HepG2 cells [4] = test: HepG2 cytotoxicity counter-screen; settings: for Mean TOX: mean of the HepG2 TOX50 values; for Tox50: cytotoxic activity against HepG2 cells
[5] = system: P. falciparum female gametocytes; test: P. falciparum Female Gametocyte Activation Assay (PfFGAA); format: cell-based, Plasmodium falciparum
[6] = system: P. falciparum gametocytes; design: method as in Almela et al 2015; settings: ref Almela et al 2015; read-out: Pf Gametocyte viability (ATP) GC-ATP IC50; cited from earlier work
[7] = system: P. falciparum gametocytes; test: P. falciparum Gametocyte Viability ATP Assay (PfGCT); format: cell-based, Plasmodium falciparum
Source text: Fig 1 The activity of TCAMS compound identified in the Pf DGFA screen. (A) 85 molecules were confirmed active in the Pf DGFA. 58 were previously identified in one or more transmission-blocking screens. […] No molecule was identified with >4.7-fold greater activity against female gametocytes. Abbreviations (IC50 = concentration giving 50% inhibition, PbODA = P. berghei Ookinete Development Assay, PfDGFA = P. falciparum Dual Gamete Formation Assay, PfFGAA = P. falciparum Female Gametocyte Activation Assay, PfGCT = P. falciparum Gametocyte Viability ATP Assay).

HepG2 cells [8] = settings: cited from earlier work
[9] = this study, read-out: Pf DGFA IC50 MALE
[10] = this study, read-out: Pf DGFA IC50 FEM
[11] = Mean TOX HepG2 over FGAA IC50, GREEN = >10-fold, RED = <10-fold
[12] = Mean TOX HepG2 over GC-ATP IC50, GREEN = >10-fold, RED = <10-fold
[13] = Mean TOX HepG2 over DGFA IC50 MALE, GREEN = >10-fold, RED = <10-fold
[14] = Plasmodium falciparum, PfDGFA, 24 h incubation with gametocytes before induction, exflagellation readout, read-out: Male IC50
[15] = Mean TOX HepG2 over DGFA IC50 FEM, GREEN = >10-fold, RED = <10-fold
[16] = Plasmodium falciparum, PfDGFA, 24 h incubation with gametocytes before induction, female gamete readout, read-out: Female IC50
[17] = HepG2 value reported with the FGAA screen, ref Miguel-Blanco et al 2017
[18] = HepG2 value reported with the GC-ATP screen, ref Almela et al 2015

SMILES: Br.c1cc(Nc2nc(-c3ccc(-c4csc(Nc5ccncc5)n4)cc3)cs2)ccn1 [TC35]
- Cytotox ratio Pf Male [1]: 26.8
- pIC50 [1, 9]: 6.52
- pIC50 [2]: 7.52
- Cytotox ratio Pf Female [3]: 26.8
- pIC50 [3, 10]: 6.52
- Mean TOX (HepG2 cells [4]): 8.03 µM
- Cytotox ratio Pf FGAA [5, 11]: 267.7
- pIC50 [6]: 6.59
- Cytotox ratio Pf GC-ATP [7, 12]: 30.9
- FGAA TOX50 HepG2 (HepG2 cells [8]): 2.26 µM
- GC-ATP TOX50 HepG2 (HepG2 cells [8]): 17.3 µM

SMILES: C=CCN(C(=O)c1ccc(Cl)c([N+](=O)[O-])c1)c1nc(-c2ccccc2)cs1 [TC38]
- Cytotox ratio Pf Male [1]: 127.1
- pIC50 [1, 9]: 6.40
- pIC50 [2]: 6.89
- Cytotox ratio Pf Female [3]: 164.1
- pIC50 [3, 10]: 6.51
- Mean TOX (HepG2 cells [4]): 50.86 µM
- Cytotox ratio Pf FGAA [5, 11]: 391.2
- pIC50 [6]: 6.96
- Cytotox ratio Pf GC-ATP [7, 12]: 462.3
- FGAA TOX50 HepG2 (HepG2 cells [8]): 100 µM
- GC-ATP TOX50 HepG2 (HepG2 cells [8]): 25 µM

SMILES: c1ccc2sc(Sc3ncnc4sccc34)nc2c1 [TC45]
- Cytotox ratio Pf Male [1]: 250.0
- pIC50 [1, 9]: 6.52
- pIC50 [2]: 6.85
- Cytotox ratio Pf Female [3]: 258.6
- pIC50 [3, 10]: 6.54
- DGFA Tox50 HepG2 (HepG2 cells [4]; HepG2 value reported with the DGFA screen): 100 µM
- Mean TOX (HepG2 cells [4]): 75.00 µM
- Cytotox ratio Pf FGAA [5, 11]: 535.7
- pIC50 [6]: 6.30
- Cytotox ratio Pf GC-ATP [7, 12]: 150.0
- FGAA TOX50 HepG2 (HepG2 cells [8]): 100 µM
- GC-ATP TOX50 HepG2 (HepG2 cells [8]): 25 µM

SMILES: Cc1sc2ncnc(Sc3nnc(N)s3)c2c1C [TC60]
- Cytotox ratio Pf Male [1]: 30.1
- pIC50 [1, 9]: 5.85
- pIC50 [2]: 6.11
- Cytotox ratio Pf Female [3]: 57.4
- pIC50 [3, 10]: 6.13
- Mean TOX (HepG2 cells [4]): 42.45 µM
- Cytotox ratio Pf FGAA [5, 11]: 55.1
- pIC50 [6]: 6.52
- Cytotox ratio Pf GC-ATP [7, 12]: 141.5
- FGAA TOX50 HepG2 (HepG2 cells [8]): 36.31 µM
- GC-ATP TOX50 HepG2 (HepG2 cells [8]): 25 µM

SMILES: [O-][s+]1c(Cl)c(-c2ccc(Cl)cc2)c2ccc(Cl)cc21 (stereo not drawn) [TC66]
- Cytotox ratio Pf Male [1]: 99.4
- pIC50 [1, 9]: 6.85
- pIC50 [2]: 7.40
- Cytotox ratio Pf Female [3]: 99.4
- pIC50 [3, 10]: 6.85
- Mean TOX (HepG2 cells [4]): 13.92 µM
- Cytotox ratio Pf FGAA [5, 11]: 347.9
- pIC50 [6]: 7.70
- Cytotox ratio Pf GC-ATP [7, 12]: 695.8
- FGAA TOX50 HepG2 (HepG2 cells [8]): 11.35 µM
- GC-ATP TOX50 HepG2 (HepG2 cells [8]): 12.8 µM

SMILES: Nc1cc(C=Cc2ccc([N+](=O)[O-])s2)nc2ccccc12 [TC80]
- Cytotox ratio Pf Male [1]: 14.2
- pIC50 [1, 9]: 6.48
- Cytotox ratio Pf Female [3]: 4.5
- pIC50 [3, 10]: 5.99
- Mean TOX (HepG2 cells [4]): 4.68 µM
- pIC50 [6]: 6.22
- Cytotox ratio Pf GC-ATP [7, 12]: 7.8
- GC-ATP TOX50 HepG2 (HepG2 cells [8]): 7.6 µM

SMILES: COc1cc2nc(N3CCN(c4nc(N)c5cc(OC)c(OC)cc5n4)CC3)nc(N)c2cc1OC [TCMDC-123865]
- HitlevelM ([1]; 2µM, 24h preincubation, number of replicates with >50% inhibition in the male readout): 3
- Selectivity Ratio M [1]: 28.11
- Cytotox ratio Pf Male [1, 13]: 26.9
- inhibition at 2 µM ([1]; Plasmodium falciparum, 2µM, 24h preincubation with gametocytes prior to induction of gametogenesis, average of replicates, read-out: Average inhibition male (%)): 50.1%
- inhibition at 2 µM ([1]; Plasmodium falciparum, 2µM, 24h preincubation with gametocytes prior to induction of gametogenesis, replicate R1, read-out: % inhibition male (individual replicates) R1): 50.8%
- inhibition at 2 µM ([1]; Plasmodium falciparum, 2µM, 24h preincubation with gametocytes prior to induction of gametogenesis, replicate R2, read-out: % inhibition male (individual replicates) R2): 50.6%
- inhibition at 2 µM ([1]; Plasmodium falciparum, 2µM, 24h preincubation with gametocytes prior to induction of gametogenesis, replicate R3, read-out: % inhibition male (individual replicates) R3): 23.6%
- inhibition at 2 µM ([1]; Plasmodium falciparum, 2µM, 24h preincubation with gametocytes prior to induction of gametogenesis, replicate R4, read-out: % inhibition male (individual replicates) R4): 75.6%
- pIC50 [1, 14]: 5.83
- pIC50 [2]: 6.24
- HitlevelF ([3]; 2µM, 24h preincubation, number of replicates with >50% inhibition in the female readout): 0
- Selectivity ratio F [3]: 20.76
- Cytotox ratio Pf Female [3, 15]: 19.9
- inhibition at 2 µM ([3]; Plasmodium falciparum, 2µM, 24h preincubation with gametocytes prior to induction of gametogenesis, average of replicates, read-out: Average inhibition female (%)): 2.6%
- inhibition at 2 µM ([3]; Plasmodium falciparum, 2µM, 24h preincubation with gametocytes prior to induction of gametogenesis, replicate R1, read-out: % inhibition female (individual replicates) R1): 18.2%
- inhibition at 2 µM ([3]; Plasmodium falciparum, 2µM, 24h preincubation with gametocytes prior to induction of gametogenesis, replicate R2, read-out: % inhibition female (individual replicates) R2): 4%
- inhibition at 2 µM ([3]; Plasmodium falciparum, 2µM, 24h preincubation with gametocytes prior to induction of gametogenesis, replicate R3, read-out: % inhibition female (individual replicates) R3): -8.7%
- inhibition at 2 µM ([3]; Plasmodium falciparum, 2µM, 24h preincubation with gametocytes prior to induction of gametogenesis, replicate R4, read-out: % inhibition female (individual replicates) R4): -3.2%
- pIC50 [3, 16]: 5.70
- Tox50 (HepG2 cells [4]): 41.34 µM
- Mean TOX (HepG2 cells [4]): 39.61 µM
- Cytotox ratio Pf FGAA ([5]; human): 68.3
- pIC50 [6]: 6.59
- Cytotox ratio Pf GC-ATP ([7]; human): 152.3
- FGAA TOX50 HepG2 (HepG2 cells [8]; [17]): 52.49 µM
- GC-ATP TOX50 HepG2 (HepG2 cells [8]; [18]): 25 µM

SMILES: CN(C)CCNCc1cccc(-c2ccc3c(Nc4ccc(Oc5ccccn5)cc4)ccnc3c2)c1 [TCMDC-138493]
- Selectivity Ratio M [1]: 14.59
- Cytotox ratio Pf Male [1, 13]: 8.5
- inhibition at 2 µM ([1]; Plasmodium falciparum, 2µM, 24h preincubation with gametocytes, average of replicates, read-out: Average inhibition male (%)): 96.2%
- inhibition at 2 µM ([1]; Plasmodium falciparum, 2µM, 24h preincubation with gametocytes, replicate R1, read-out: % inhibition male (individual replicates) R1): 93.5%
- inhibition at 2 µM ([1]; Plasmodium falciparum, 2µM, 24h preincubation with gametocytes, replicate R2, read-out: % inhibition male (individual replicates) R2): 99.2%
- inhibition at 2 µM ([1]; Plasmodium falciparum, 2µM, 24h preincubation with gametocytes, replicate R3, read-out: % inhibition male (individual replicates) R3): 91.9%
- inhibition at 2 µM ([1]; Plasmodium falciparum, 2µM, 24h preincubation with gametocytes, replicate R4, read-out: % inhibition male (individual replicates) R4): 100%
- pIC50 [1, 14]: 6.11
- pIC50 [2]: 6.09
- Selectivity ratio F [3]: 2.14
- Cytotox ratio Pf Female [3, 15]: 1.2
- inhibition at 2 µM ([3]; Plasmodium falciparum, 2µM, 24h preincubation with gametocytes, average of replicates, read-out: Average inhibition female (%)): 65.4%
- inhibition at 2 µM ([3]; Plasmodium falciparum, 2µM, 24h preincubation with gametocytes, replicate R1, read-out: % inhibition female (individual replicates) R1): 58.7%
- inhibition at 2 µM ([3]; Plasmodium falciparum, 2µM, 24h preincubation with gametocytes, replicate R2, read-out: % inhibition female (individual replicates) R2): 66.3%
- inhibition at 2 µM ([3]; Plasmodium falciparum, 2µM, 24h preincubation with gametocytes, replicate R3, read-out: % inhibition female (individual replicates) R3): 72.6%
- inhibition at 2 µM ([3]; Plasmodium falciparum, 2µM, 24h preincubation with gametocytes, replicate R4, read-out: % inhibition female (individual replicates) R4): 64.1%
- pIC50 [3, 16]: 5.27
- Tox50 (HepG2 cells [4]): 11.38 µM
- Mean TOX (HepG2 cells [4]): 6.62 µM
- Cytotox ratio Pf FGAA ([5]; human): 4.9
- pIC50 [6]: 6.66
- Cytotox ratio Pf GC-ATP ([7]; human): 20.4
- FGAA TOX50 HepG2 (HepG2 cells [8]; [17]): 3.98 µM
- GC-ATP TOX50 HepG2 (HepG2 cells [8]; [18]): 4.49 µM
